Source: patent publication US12514832B2, “Methods for using low-dose colchicine after myocardial infarction” (INSTITUT DE CARDIOLOGIE DE MONTREAL, priority 2019, dated 2026)
Read-outs that look alike come from different tables or passages of the source.

Tested on: rs6916345 (LINC01108/JARID2, chromosome 6); rs10128117 (SEPHS1, chromosome 10)
Conditions: colchicine treatment arm; for HR, gastrointestinal disorders / coef, gastrointestinal disorders: males + females
[1] = rs10128117 chr 10, EA A vs NEA T
[2] = rs10128117 effect allele A vs T
[3] = rs10906346 effect allele A vs G
[4] = rs11258319 effect allele T vs C
[5] = rs12210439 chr 6, EA A vs NEA G
[6] = rs41291319 effect allele A vs G
[7] = rs41291321 effect allele C vs G
[8] = rs58260827 effect allele CA vs C
[9] = rs61851591 chr 10, EA A vs NEA C
[10] = rs61851591 effect allele A vs C
[11] = rs61851592 chr 10, EA T vs NEA C
[12] = rs61851592 effect allele T vs C
[13] = rs61851593 chr 10, EA C vs NEA T
[14] = rs61851593 effect allele C vs T
[15] = rs61851598 effect allele A vs G
[16] = rs61851599 effect allele T vs C
[17] = rs70993041 chr 6, EA TAA vs NEA T
[18] = rs74795203 chr 10, EA G vs NEA A
[19] = rs74795203 effect allele G vs A
[20] = rs77006996 chr 10, EA T vs NEA C
[21] = rs77006996 effect allele T vs C
[22] = rs117874450 effect allele T vs C
[23] = rs552621122 effect allele A vs ATT

Structure (SMILES): COc1cc2c(c(OC)c1OC)-c1ccc(OC)c(=O)cc1[C@@H](NC(C)=O)CC2 [Colchicine, colchicine]
- HR (hazard ratio), genetic association with gastrointestinal disorders (rs7764937 chr 6, EA C vs NEA G): 0.55
- HR, gastrointestinal disorders (rs7894075 effect allele C vs A): 2.4
- coef, gastrointestinal disorders (rs7894075 effect allele C vs A): 0.8903
- HR, gastrointestinal disorders (rs7901525 effect allele A vs C): 2.4
- coef, gastrointestinal disorders (rs7901525 effect allele A vs C): 0.8865
- HR, gastrointestinal disorders (rs7902331 effect allele T vs C): 2.4
- coef, gastrointestinal disorders (rs7902331 effect allele T vs C): 0.8596
- HR, gastrointestinal disorders (rs7916194 effect allele T vs A): 2.5
- coef, gastrointestinal disorders (rs7916194 effect allele T vs A): 0.9034
- HR, gastrointestinal disorders (rs7917549 effect allele A vs G): 2.4
- coef, gastrointestinal disorders (rs7917549 effect allele A vs G): 0.8864
- HR, gastrointestinal disorders (rs7919509 effect allele C vs T): 2.5
- coef, gastrointestinal disorders (rs7919509 effect allele C vs T): 0.9034
- Coefficient, genetic association with gastrointestinal disorders (rs9349955 chr 6, EA T vs NEA C): −0.633
- HR (hazard ratio), genetic association with gastrointestinal disorders (rs9349955 chr 6, EA T vs NEA C): 0.53
- Coefficient, genetic association with gastrointestinal disorders (rs9358044 chr 6, EA T vs NEA A): −0.610
- HR (hazard ratio), genetic association with gastrointestinal disorders (rs9358044 chr 6, EA T vs NEA A): 0.54
- Coefficient, genetic association with gastrointestinal disorders (rs9382993 chr 6, EA C vs NEA T): −0.636
- HR (hazard ratio), genetic association with gastrointestinal disorders (rs9382993 chr 6, EA C vs NEA T): 0.53
- HR, gastrointestinal disorders (rs9423893 effect allele A vs G): 2.4
- coef, gastrointestinal disorders (rs9423893 effect allele A vs G): 0.8599
- Coefficient, genetic association with gastrointestinal disorders (rs9476616 chr 6, EA G vs NEA C): −0.607
- HR (hazard ratio), genetic association with gastrointestinal disorders (rs9476616 chr 6, EA G vs NEA C): 0.55
- Coefficient, genetic association with gastrointestinal disorders [1]: 0.934
- HR (hazard ratio), genetic association with gastrointestinal disorders [1]: 2.55
- HR, gastrointestinal disorders [2]: 2.5
- coef, gastrointestinal disorders [2]: 0.9342
- HR, gastrointestinal disorders [3]: 2.5
- coef, gastrointestinal disorders [3]: 0.902
- HR, gastrointestinal disorders [4]: 2.4
- coef, gastrointestinal disorders [4]: 0.8718
- Coefficient, genetic association with gastrointestinal disorders [5]: −0.594
- HR (hazard ratio), genetic association with gastrointestinal disorders [5]: 0.55
- HR, gastrointestinal disorders [6]: 2.4
- coef, gastrointestinal disorders [6]: 0.8843
- HR, gastrointestinal disorders [7]: 2.4
- coef, gastrointestinal disorders [7]: 0.8594
- HR, gastrointestinal disorders [8]: 2.4
- coef, gastrointestinal disorders [8]: 0.8895
- Coefficient, genetic association with gastrointestinal disorders [9]: 0.917
- HR (hazard ratio), genetic association with gastrointestinal disorders [9]: 2.50
- HR, gastrointestinal disorders [10]: 2.5
- coef, gastrointestinal disorders [10]: 0.9168
- Coefficient, genetic association with gastrointestinal disorders [11]: 0.921
- HR (hazard ratio), genetic association with gastrointestinal disorders [11]: 2.51
- HR, gastrointestinal disorders [12]: 2.5
- coef, gastrointestinal disorders [12]: 0.9206
- Coefficient, genetic association with gastrointestinal disorders [13]: 0.921
- HR (hazard ratio), genetic association with gastrointestinal disorders [13]: 2.51
- HR, gastrointestinal disorders [14]: 2.5
- coef, gastrointestinal disorders [14]: 0.9206
- HR, gastrointestinal disorders [15]: 2.4
- coef, gastrointestinal disorders [15]: 0.8657
- HR, gastrointestinal disorders [16]: 2.4
- coef, gastrointestinal disorders [16]: 0.8665
- Coefficient, genetic association with gastrointestinal disorders [17]: −0.632
- HR (hazard ratio), genetic association with gastrointestinal disorders [17]: 0.53
- Coefficient, genetic association with gastrointestinal disorders [18]: 0.921
- HR (hazard ratio), genetic association with gastrointestinal disorders [18]: 2.51
- HR, gastrointestinal disorders [19]: 2.5
- coef, gastrointestinal disorders [19]: 0.9207
- Coefficient, genetic association with gastrointestinal disorders [20]: 0.917
- HR (hazard ratio), genetic association with gastrointestinal disorders [20]: 2.50
- HR, gastrointestinal disorders [21]: 2.5
- coef, gastrointestinal disorders [21]: 0.9167
- HR, gastrointestinal disorders [22]: 2.4
- coef, gastrointestinal disorders [22]: 0.8656
- HR, gastrointestinal disorders [23]: 2.4
- coef, gastrointestinal disorders [23]: 0.8864
